Measurements as given in patent US8895571B2, “Isoindolinone and pyrrolopyridinone derivatives as Akt inhibitors” (Incyte Corporation, priority 2011, dated 2014).

Columns and labels:
[1] = molecular target: T1, Full length Akt1 (Homo sapiens, UniProt P31749); assay: In vitro Akt kinase enzymatic assay (HTRF), Akt1; format: biochemical; conditions: 0.4 nM Akt1, substrate solution with 5 mM ATP, 25° C. 1 hr
T1 construct: Full length Akt1 (cat #P2999); purchased PerkinElmer P2999
Summary of the method: (§1)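 Full-length enzyme (0.4 nM Akt1 or 0.6 nM Akt2/Akt3 in the enzyme solution) was combined with a substrate solution of 0.1 μM ULight-Crosstide plus 5 mM ATP in pH 7.8 HEPES/MgCl2/DTT/Tween20 buffer and reacted 1 hr at 25° C. The EDTA stop contained Eu anti-phospho-Crosstide; IC50 was fitted from 11-point HTRF inhibition curves.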

[2] = molecular target: T2, Full length Akt2 (Homo sapiens, UniProt P31751); assay: In vitro Akt kinase enzymatic assay (HTRF), Akt2; format: biochemical; conditions: 0.6 nM Akt2, substrate solution with 5 mM ATP, 25° C. 1 hr
T2 construct: Full length Akt1 (cat #P2999), Akt2 (cat #PV3184); purchased PerkinElmer PV3184
Summary of the method: as §1

[3] = molecular target: T3, Full length Akt3 (Homo sapiens, UniProt Q9Y243); assay: In vitro Akt kinase enzymatic assay (HTRF), Akt3; format: biochemical; conditions: 0.6 nM Akt3, substrate solution with 5 mM ATP, 25° C. 1 hr
T3 construct: Full length Akt1 (cat #P2999), Akt2 (cat #PV3184), Akt3 (cat #PV3185); purchased PerkinElmer PV3185
Summary of the method: as §1

[4] = molecular target: T4, Full length PKA (Homo sapiens, UniProt P17612); assay: PKA in vitro enzymatic assay (HTRF); format: biochemical; conditions: 0.035 nM enzyme solution, substrate solution with 5 mM ATP, 25° C. 1 hr
T4 construct: Full length PKA (cat #P2912); purchased Invitrogen P2912
Summary of the method: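 IC50 came from curve fitting of percent inhibition across an 11-point, 3-fold compound series, with HTRF read after EDTA quench and Tb-labelled p-S133 antibody detection. Enzyme (0.035 nM solution) and substrate (0.1 μM fluorescein-CREBtide solution containing 5 mM ATP) reacted for 1 h at 25°C. The buffer was HEPES 50 mM pH 7.8 with 10 mM MgCl2, 5 mM DTT and 0.005% Tween20.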

[5] = system: LNCaP cells (human prostate tumor cell line); assay: Akt LNCaP proliferation assay (MTS); format: cell-based; conditions: 48 hours
Summary of the method: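 Cells plated at 10,000/well in RPMI with 2% FBS overnight at 37° C., 5% CO2, then exposed to compound at 1000 nM to 0.5 nM (3-fold dilutions) for 48 hours. Viable cells measured by MTS colorimetric read-out after 2 hours; IC50 taken as concentration giving 50% inhibition of total proliferation.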

[6] = 2% fetal bovine serum, class symbols
[7] = given as a bound, final concentrations 1000 nM to 0.5 nM

T1 sequence (P31749 whole entry): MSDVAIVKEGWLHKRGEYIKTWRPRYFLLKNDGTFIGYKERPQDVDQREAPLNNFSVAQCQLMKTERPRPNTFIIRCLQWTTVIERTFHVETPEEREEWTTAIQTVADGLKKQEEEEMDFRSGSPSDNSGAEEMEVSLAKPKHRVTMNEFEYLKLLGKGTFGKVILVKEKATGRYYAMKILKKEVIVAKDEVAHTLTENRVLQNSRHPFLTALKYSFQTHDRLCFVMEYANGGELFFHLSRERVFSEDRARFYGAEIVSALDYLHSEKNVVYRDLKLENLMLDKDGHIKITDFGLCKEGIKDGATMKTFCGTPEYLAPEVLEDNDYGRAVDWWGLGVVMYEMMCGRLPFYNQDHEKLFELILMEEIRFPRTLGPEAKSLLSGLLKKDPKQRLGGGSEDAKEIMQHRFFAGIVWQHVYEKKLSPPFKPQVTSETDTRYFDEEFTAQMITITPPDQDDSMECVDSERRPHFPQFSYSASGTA
T2 sequence (P31751 whole entry): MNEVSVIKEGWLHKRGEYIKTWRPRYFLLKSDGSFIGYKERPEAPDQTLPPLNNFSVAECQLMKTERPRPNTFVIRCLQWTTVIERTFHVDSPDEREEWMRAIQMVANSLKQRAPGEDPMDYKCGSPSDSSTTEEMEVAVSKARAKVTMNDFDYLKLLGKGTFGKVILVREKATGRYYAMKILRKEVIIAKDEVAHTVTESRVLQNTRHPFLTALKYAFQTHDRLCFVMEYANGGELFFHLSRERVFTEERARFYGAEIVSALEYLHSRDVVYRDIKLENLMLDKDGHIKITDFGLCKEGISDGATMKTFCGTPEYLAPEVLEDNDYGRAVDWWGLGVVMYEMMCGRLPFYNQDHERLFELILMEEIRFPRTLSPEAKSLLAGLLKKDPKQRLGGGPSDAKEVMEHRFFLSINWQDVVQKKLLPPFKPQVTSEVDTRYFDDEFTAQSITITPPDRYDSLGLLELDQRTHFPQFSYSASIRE
T3 sequence (Q9Y243 whole entry): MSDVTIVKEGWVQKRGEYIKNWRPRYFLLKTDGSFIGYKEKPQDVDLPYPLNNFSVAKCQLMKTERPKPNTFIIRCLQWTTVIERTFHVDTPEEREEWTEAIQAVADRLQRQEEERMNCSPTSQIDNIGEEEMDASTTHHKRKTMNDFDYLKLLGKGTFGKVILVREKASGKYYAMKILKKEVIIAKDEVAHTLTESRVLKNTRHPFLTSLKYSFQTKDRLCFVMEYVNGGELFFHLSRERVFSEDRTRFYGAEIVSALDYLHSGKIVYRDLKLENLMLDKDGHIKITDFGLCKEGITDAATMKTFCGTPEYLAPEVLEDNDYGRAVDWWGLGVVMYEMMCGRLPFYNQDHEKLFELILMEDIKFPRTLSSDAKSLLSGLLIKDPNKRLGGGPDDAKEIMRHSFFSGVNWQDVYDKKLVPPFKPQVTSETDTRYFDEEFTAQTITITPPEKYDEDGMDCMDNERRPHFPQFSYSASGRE

| IC50 [1] [nM] | IC50 [2] [nM] | IC50 [3] [nM] | IC50 [4] [nM] | IC50 [5, 6] [nM] | IC50 [5, 7] [nM] | SMILES |
| --- | --- | --- | --- | --- | --- | --- |
| < 500 | < 500 | < 500 | 500 to 5000 | < 500 | – | Cn1nccc1-c1cc2c(cn1)C(=O)N([C@H](CN)Cc1cc(F)cc(F)c1)C2 [Example 102, 2-[(1S)-2-amino-1-(3,5-difluoro-benzyl)ethyl]-6-(1-methyl-1H-pyrazol-5-yl)-1,2-dihydro-3H-pyrrolo[3,4-c]pyridin-3-one] |
| < 500 | < 500 | < 500 | 500 to 5000 | < 500 | – | Cc1cnn(C)c1-c1cc2c(cn1)C(=O)N([C@H](CN)Cc1cc(F)cc(F)c1)C2 [Example 103, 2-[(1S)-2-amino-1-(3,5-difluoro-benzyl)ethyl]-6-(4-methyl-1-methyl-1H-pyrazol-5-yl)-1,2-dihydro-3H-pyrrolo[3,4-c]pyridin-3-one] |
| < 500 | < 500 | < 500 | 500 to 5000 | < 500 | – | Cn1ncc(Br)c1-c1cc2c(cn1)C(=O)N([C@H](CN)Cc1cc(F)cc(F)c1)C2 [Example 104, 2-[(1S)-2-amino-1-(3,5-difluoro-benzyl)ethyl]-6-(4-broro-1-methyl-1H-pyrazol-5-yl)-1,2-dihydro-3H-pyrrolo[3,4-c]pyridin-3-one] |
| < 500 | 500 to 5000 | < 500 | > 5000 | 500 to 5000 | – | COCc1cnn(C)c1-c1cc2c(cn1)C(=O)N([C@H](CN)Cc1cc(F)cc(F)c1)C2 [Example 105, 2-[(1S)-2-amino-1-(3,5-difluoro-benzyl)ethyl]-6-(4-methoxymethyl-1-methyl-1H-pyrazol-5-yl)-1,2-dihydro-3H-pyrrolo[3,4-c]pyridin-3-one] |
| < 500 | < 500 | < 500 | > 5000 | < 500 | – | CC(C)OCc1cnn(C)c1-c1cc2c(cn1)C(=O)N([C@H](CN)Cc1cc(F)cc(F)c1)C2 [Example 106, 2-[(1S)-2-amino-1-(3,5-difluoro-benzyl)ethyl]-6-[4-(2-propoxy-methyl)-1-methyl-1H-pyrazol-5-yl]-1,2-dihydro-3H-pyrrolo[3,4-c]pyridin-3-one] |
| < 500 | < 500 | < 500 | > 5000 | < 500 | – | CCCOCc1cnn(C)c1-c1cc2c(cn1)C(=O)N([C@H](CN)Cc1cc(F)cc(F)c1)C2 [Example 107, 2-[(1S)-2-amino-1-(3,5-difluoro-benzyl)ethyl]-6-[4-(1-propoxy-methyl)-1-methyl-1H-pyrazol-5-yl]-1,2-dihydro-3H-pyrrolo[3,4-c]pyridin-3-one] |
| < 500 | < 500 | 500 to 5000 | 500 to 5000 | < 500 | – | Cn1nccc1-c1ccc2c(c1)CN([C@@H](CN)c1ccccc1)C2=O [Example 116, 2-[(1R)-2-amino-1-phenylethyl]-5-(1-methyl-1H-pyrazol-5-yl)isoindolin-1-one] |
| < 500 | < 500 | 500 to 5000 | 500 to 5000 | < 500 | – | Cn1nccc1-c1ccc2c(c1)CN(C(CN)c1cccc(F)c1)C2=O (stereo not drawn) [Example 117, 2-[2-amino-1-(3-fluorophenyl)ethyl]-5-(1-methyl-1H-pyrazol-5-yl)isoindolin-1-one] |
| < 500 | < 500 | < 500 | > 5000 | < 500 | – | CCn1nccc1-c1ccc2c(c1)CN([C@H](CN)Cc1cccc(F)c1)C2=O [Example 127, 2-[(1S)-2-amino-1-(3-fluorobenzyl)ethyl]-5-(1-ethyl-1H-pyrazol-5-yl)isoindolin-1-one] |
| < 500 | < 500 | < 500 | > 5000 | < 500 | – | CCn1nccc1-c1ccc2c(c1)CN([C@H](CN)Cc1cc(F)cc(F)c1)C2=O [Example 128, 2-[(1S)-2-amino-1-(3,5-difluorobenzyl)ethyl]-5-(1-ethyl-1H-pyrazol-5-yl)isoindolin-1-one] |
| 500 to 5000 | > 5000 | > 5000 | > 5000 | – | > 1000 | CC(C)Cn1nccc1-c1ccc2c(c1)CN([C@H](CN)Cc1cccc(F)c1)C2=O [Example 129, 2-[(1S)-2-amino-1-(3-fluorobenzyl)ethyl]-5-(1-isobutyl-1H-pyrazol-5-yl)isoindolin-1-one] |
| 500 to 5000 | > 5000 | > 5000 | > 5000 | – | > 1000 | CC(C)Cn1nccc1-c1ccc2c(c1)CN([C@H](CN)Cc1cc(F)cc(F)c1)C2=O [Example 130, 2-[(1S)-2-amino-1-(3,5-difluorobenzyl)ethyl]-5-(1-isobutyl-1H-pyrazol-5-yl)isoindolin-1-one] |
| < 500 | < 500 | < 500 | 500 to 5000 | < 500 | – | Cn1nccc1-c1ccc2c(c1)CN([C@H](CN)CC1CCCCC1)C2=O [Example 131, 2-[(1S)-2-amino-1-(cyclohexylmethyl)ethyl]-5-(1-methyl-1H-pyrazol-5-yl)isoindolin-1-one] |
| < 500 | < 500 | < 500 | 500 to 5000 | < 500 | – | Cn1ncc(Cl)c1-c1ccc2c(c1)CN([C@H](CN)CC1CCCCC1)C2=O [Example 132, 2-[(1S)-2-amino-1-(cyclohexylmethyl)ethyl]-5-(4-chloro-1-methyl-1H-pyrazol-5-yl)isoindolin-1-one] |
| < 500 | 500 to 5000 | 500 to 5000 | > 5000 | 500 to 5000 | – | COCc1cnn(C)c1-c1ccc2c(c1)CN([C@H](CN)CC1CCCCC1)C2=O [Example 133, 2-[(1S)-2-amino-1-(cyclohexylmethyl)ethyl]-5-[4-(methoxymethyl)-1-methyl-1H-pyrazol-5-yl]isoindolin-1-one] |
| < 500 | < 500 | < 500 | < 500 | < 500 | – | Cn1nccc1-c1cc2c(cn1)C(=O)N([C@H](CN)CC1CCCCC1)C2 [Example 134, 2-[(1S)-2-amino-1-(cyclohexylmethyl)ethyl]-6-(1-methyl-1H-pyrazol-5-yl)-1,2-dihydro-3H-pyrrolo[3,4-c]pyridin-3-one] |
| < 500 | < 500 | < 500 | 500 to 5000 | < 500 | – | Cn1ncc(Cl)c1-c1cc2c(cn1)C(=O)N([C@H](CN)CC1CCCCC1)C2 [Example 135, 2-[(1S)-2-amino-1-(cyclohexylmethyl)ethyl]-6-(4-chloro-1-methyl-1H-pyrazol-5-yl)-1,2-dihydro-3H-pyrrolo[3,4-c]pyridin-3-one] |

| SMILES | IC50 [1] [nM] | IC50 [2] [nM] | IC50 [3] [nM] | IC50 [4] [nM] | IC50 [5, 6] [nM] | IC50 [5, 7] [nM] |
| --- | --- | --- | --- | --- | --- | --- |
| Cn1ncc(COC2CCC2)c1-c1cc2c(cn1)C(=O)N([C@H](CN)Cc1cc(F)cc(F)c1)C2 [Example 108, 2-[(1S)-2-amino-1-(3,5-difluoro-benzyl)ethyl]-6-[4-(cyclobutoxy-methyl)-1-methyl-1H-pyrazol-5-yl]-1,2-dihydro-3H-pyrrolo[3,4-c]pyridin-3-one] | < 500 | < 500 | < 500 | 500 to 5000 | < 500 | – |
